Key:
NOD mouse model = experiment: NOD and Hashimoto's autoimmune animal models; format: in vivo; settings: compared to untreated animals
Source text: There are several animal based autoimmune models that can be used to test the use of the compounds disclosed herein for the treatment of an autoimmune disorder. Table 2 lists several exemplary immune-mediated disorders that can be treated using a peptide/MHC complex. For example, the non-obese diabetic (NOD) mouse model is an animal model system wherein animals develop diabetes with increasing age. To test the efficacy of a particular compound, groups of animals at the prediabetic stage (4 weeks or younger) are treated with, for example, LY303511, or LY303511 in combination with an additional immunosuppressive agent. The number of animals developing diabetes, and the rate that the anirnals develop diabetes, is then analyzed. Similarly, in the Hashimoto's mouse model system, to test the efficacy of a vaccine, groups of animals prior to the development of symptoms are treated with a treated with, for example, LY303511, or LY303511 in combination with an additional immunosuppressive agent. The number of animals developing the disease, and the rate that the animals develop the disease, are then analyzed.

P70 S6 kinase = experiment: Western blot of phospho-p70 S6 kinase T389 in PASM cells; format: cell-based, human
Description: FIGS. 4A-4D are bar graphs and digital images showing that LY303511 inhibits serum-stimulated phosphorylation of S6K and Akt (FIGS. 4A and 4B), as well as proliferation in PASM cells (FIGS. 4C and 4D). After incubation in serum-free medium for 24 hours, PASM cells were incubated without or with 100 μM LY303511, rapamycin, 200 ng/ml, or 200 nM wortmannin (FIG. 4A), or 0-100 μM LY303511 (FIG. 4B), for 1 hour before the addition of 10% FBS for 30 min and preparation of cell lysates. Equal amounts of protein (20 μg/gel) were separated by SDS-PAGE and transferred to nitrocellulose membranes before immunodetection of phospho-p70 S6 kinase T389 (pS6K) orphospho-Akt S473 (pAkt) by Western blot. Data are from one experiment representative of five.
HPASM cells were purchased from Clonetics and passaged according to the manufacturer's instructions. Cells were plated in 100 mm dishes, and allowed to grow to near confluence before serum starvation for 24 hours. […] Cells were homogenized and the indicated proteins were detected by Western blot.
Measurement of protein phosphorylation: A549 cells were incubated in serum-free medium without or with inhibitors for 1 hour, as indicated, before incubation for 30 minutes with a mixture of LPS, 100 μg/ml (Sigma; St. Louis, Mo.) and IFN-γ, 100 U/ml (Roche; Nutley, N.J.). […] Integrated band densities were quantified using Scion Image beta 3b software.

PASM cells = experiment: BrDU incorporation (in situ ELISA) in PASM cells; format: cell-based, human
Description: PASM cells (4,000 per well) were grown in 96-well plates for 24 hours before incubation for 24 hours in medium with (FIG. 4C) or without 10% FBS (FIG. 4D). Cells were then incubated in fresh medium containing 10% FBS, 10 μM BrDU, and 0-100 μM LY303511 without or with rapamycin, 200 or 400 ng/ml, for 24 hours BrDU incorporation was measured by in situ ELISA as per the manufacturer's instructions (BrDU detection kit, Roche). For each experiment, BrDU content of cells incubated with inhibitors was expressed relative to that in cells incubated with 0.1% DMSO control (% control). Mean control (=100%) absorbance for each experiment using cells from different donors was 0.22±0.06 and 0.24±0.06 for FIG. 4C and FIG. 4D, respectively (=100%). Data are means of BrDU values ±SEM from 3 experiments with assays in sextuplet. *p<0.05 vs. DMSO control, or †p<0.05 vs. 10 μM LY303511, by Student's t-test.
Measurement of cell proliferation:. Cell proliferation, or DNA synthesis, was estimated using an in situ 5-bromo-2-deoxy-uridine (BrDU) detection kit as per the manufacturer's instructions (Roche Diagnostics; Nutley, N.J.). […] Cells were fixed, and BrDU was detected using a peroxidase-conjugated anti-BrDU antibody. The measured absorbance data in cells treated with inhibitors were normalized to those treated with DMSO control (% control).

A549 cells = experiment: Propidium iodide flow cytometry cell cycle analysis in A549 cells; format: cell-based, human

- IC50 (P70 S6 kinase; Homo sapiens, pulmonary artery smooth muscle cells, densitometry, read-out: IC50 for inhibition of S6K phosphorylation): ~1000 nM
Compound: O=c1cc(N2CCNCC2)oc2c(-c3ccccc3)cccc12 [LY303511, 2-(4-piperazinyl)-8-phenyl-4H-1-benzopyran-4-one]
- progression or development of autoimmune disease (NOD mouse model): delays the progression of the disease, or provides protection from developing the disease
- basal and serum-stimulated phosphorylation of P70 S6 kinase (P70 S6 kinase; PASM cells, 10% FBS for 30 minutes): inhibited basal and serum-stimulate phosphorylation of P70 S6 kinase
- proliferation (BrDu incorporation) (PASM cells; PASM cells in serum-free medium for 24 h before addition of FBS (FIG. 4D), compared with serum pre-incubation): enhanced in the absence of serum
- proliferation (BrDu incorporation) (PASM cells; PASM cells incubated with serum before addition of inhibitors (FIG. 4C)): inhibited in concentration-dependent fashion
- proportion of cells in G2/M (A549 cells; 100 μM LY303511, 24 hours): remained unchanged
- fraction of cells in S phase (A549 cells; 24 hours, 10 or 100 μM LY303511 without or with rapamycin 200 ng/ml): significantly reduced the fraction of cells in S phase
- apoptosis or necrosis (A549 cells; flow cytometric analysis of propidium iodide-stained cells): did not induce apoptosis or necrosis

Reference: patent publication US8044057B2, “Methods for suppressing an immune response or treating a proliferative disorder” (The United States of America as represented by the …, priority 2003, dated 2011)
